According to ChEMBL document CHEMBL1201862, “PubChem BioAssay data set” (2004):
The source made the active and inactive calls.

How the values were obtained:
[1] = biological target: Serine/threonine-protein phosphatase PP1-alpha catalytic subunit (Homo sapiens, UniProt P62136); assay: inhibition of protein phosphatase 1 activity – biochemical, fluorescence, dose response (AID 2394)
[2] = biological target: Lysine-specific demethylase 4C (Homo sapiens, UniProt Q9H3R0); assay: inhibition of JMJD2C H3K9me3 demethylation – biochemical, DELFIA europium, cherry-picked samples, dose response (AID 488835); assay type: functional
[3] = biological target: Serine/threonine-protein phosphatase (Homo sapiens, UniProt Q9BPW0); assay: inhibition of protein phosphatase 5 activity – biochemical, fluorescence, dose response (AID 2395)
[4] = bead-based luminescence quenchers, dual-tagged ARNT – biochemical, AlphaScreen, cherry-pick, artefact control for ARNT-TACC3 interaction inhibitor project, dose response (AID 651705); assay type: functional;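 note: AlphaScreen bead proximity signal that flags compounds interfering with the detection technology; potency reflects signal decrease which marks the compound as an assay artifact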
[5] = biological target: Nucleotide-binding oligomerization domain-containing protein 1 (Homo sapiens, UniProt Q9Y239); assay: blockers of NOD1 pathway activity – revised, SAR follow-up (AID 2333); assay type: functional
[6] = biological target: Tumor necrosis factor (Homo sapiens, UniProt P01375); assay: analog potency on TNFa NF-kB signaling – cell-based, revised, SAR follow-up (AID 2337); assay type: functional
[7] = biological target: Nucleotide-binding oligomerization domain-containing protein 2 (Homo sapiens, UniProt Q9HC29); assay: PubChem AID 2334; assay type: functional
[8] = tested on: HEK293; assay: cells; conditions: Homo sapiens;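 note: cells exposed to compound for 14 hours overnight before viability readout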
[9] = biological target: T1, Tyrosine-protein phosphatase non-receptor type 22 (Homo sapiens, UniProt Q9Y2R2); assay type: functional
T1 sequence (Q9Y2R2 whole entry): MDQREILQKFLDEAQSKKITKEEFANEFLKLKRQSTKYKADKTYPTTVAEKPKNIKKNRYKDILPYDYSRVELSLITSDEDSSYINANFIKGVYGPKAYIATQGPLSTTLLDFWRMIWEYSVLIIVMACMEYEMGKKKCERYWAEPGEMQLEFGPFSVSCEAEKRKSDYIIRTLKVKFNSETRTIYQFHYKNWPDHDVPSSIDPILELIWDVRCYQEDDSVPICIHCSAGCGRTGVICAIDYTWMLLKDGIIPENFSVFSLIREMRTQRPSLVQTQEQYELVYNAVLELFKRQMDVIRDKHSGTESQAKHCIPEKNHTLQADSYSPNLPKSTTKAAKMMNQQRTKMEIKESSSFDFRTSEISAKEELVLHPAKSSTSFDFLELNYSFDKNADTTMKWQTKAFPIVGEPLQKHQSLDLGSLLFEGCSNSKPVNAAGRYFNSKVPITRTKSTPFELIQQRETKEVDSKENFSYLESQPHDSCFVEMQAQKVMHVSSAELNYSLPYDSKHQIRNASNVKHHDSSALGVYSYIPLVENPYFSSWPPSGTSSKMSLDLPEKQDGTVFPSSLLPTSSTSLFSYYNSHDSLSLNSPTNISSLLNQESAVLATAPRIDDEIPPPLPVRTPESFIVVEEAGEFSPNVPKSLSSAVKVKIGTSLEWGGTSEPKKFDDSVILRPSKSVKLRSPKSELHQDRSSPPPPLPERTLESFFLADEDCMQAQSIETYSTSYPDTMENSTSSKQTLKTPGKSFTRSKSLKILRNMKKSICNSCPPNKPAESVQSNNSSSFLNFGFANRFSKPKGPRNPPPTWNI

[10] = biological target: T1, Tyrosine-protein phosphatase non-receptor type 22; assay type: functional; remark: listed apart in the source
[11] = biological target: T2, Tyrosine-protein phosphatase non-receptor type 7 (Homo sapiens, UniProt P35236); assay type: functional
T2 sequence (P35236 whole entry): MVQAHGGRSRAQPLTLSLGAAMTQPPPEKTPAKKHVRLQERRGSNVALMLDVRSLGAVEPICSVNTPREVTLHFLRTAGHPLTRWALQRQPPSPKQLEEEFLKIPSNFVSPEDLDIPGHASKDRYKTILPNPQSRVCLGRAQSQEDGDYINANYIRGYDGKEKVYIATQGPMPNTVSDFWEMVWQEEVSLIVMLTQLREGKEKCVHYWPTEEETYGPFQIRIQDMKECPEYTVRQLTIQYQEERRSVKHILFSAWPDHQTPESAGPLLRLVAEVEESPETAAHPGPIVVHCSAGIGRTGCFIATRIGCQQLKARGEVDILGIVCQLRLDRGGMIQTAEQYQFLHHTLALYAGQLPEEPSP

[12] = biological target: T3, Histone-lysine N-methyltransferase NSD2 (Homo sapiens, UniProt O96028); assay type: biochemical
T3 sequence (O96028 whole entry): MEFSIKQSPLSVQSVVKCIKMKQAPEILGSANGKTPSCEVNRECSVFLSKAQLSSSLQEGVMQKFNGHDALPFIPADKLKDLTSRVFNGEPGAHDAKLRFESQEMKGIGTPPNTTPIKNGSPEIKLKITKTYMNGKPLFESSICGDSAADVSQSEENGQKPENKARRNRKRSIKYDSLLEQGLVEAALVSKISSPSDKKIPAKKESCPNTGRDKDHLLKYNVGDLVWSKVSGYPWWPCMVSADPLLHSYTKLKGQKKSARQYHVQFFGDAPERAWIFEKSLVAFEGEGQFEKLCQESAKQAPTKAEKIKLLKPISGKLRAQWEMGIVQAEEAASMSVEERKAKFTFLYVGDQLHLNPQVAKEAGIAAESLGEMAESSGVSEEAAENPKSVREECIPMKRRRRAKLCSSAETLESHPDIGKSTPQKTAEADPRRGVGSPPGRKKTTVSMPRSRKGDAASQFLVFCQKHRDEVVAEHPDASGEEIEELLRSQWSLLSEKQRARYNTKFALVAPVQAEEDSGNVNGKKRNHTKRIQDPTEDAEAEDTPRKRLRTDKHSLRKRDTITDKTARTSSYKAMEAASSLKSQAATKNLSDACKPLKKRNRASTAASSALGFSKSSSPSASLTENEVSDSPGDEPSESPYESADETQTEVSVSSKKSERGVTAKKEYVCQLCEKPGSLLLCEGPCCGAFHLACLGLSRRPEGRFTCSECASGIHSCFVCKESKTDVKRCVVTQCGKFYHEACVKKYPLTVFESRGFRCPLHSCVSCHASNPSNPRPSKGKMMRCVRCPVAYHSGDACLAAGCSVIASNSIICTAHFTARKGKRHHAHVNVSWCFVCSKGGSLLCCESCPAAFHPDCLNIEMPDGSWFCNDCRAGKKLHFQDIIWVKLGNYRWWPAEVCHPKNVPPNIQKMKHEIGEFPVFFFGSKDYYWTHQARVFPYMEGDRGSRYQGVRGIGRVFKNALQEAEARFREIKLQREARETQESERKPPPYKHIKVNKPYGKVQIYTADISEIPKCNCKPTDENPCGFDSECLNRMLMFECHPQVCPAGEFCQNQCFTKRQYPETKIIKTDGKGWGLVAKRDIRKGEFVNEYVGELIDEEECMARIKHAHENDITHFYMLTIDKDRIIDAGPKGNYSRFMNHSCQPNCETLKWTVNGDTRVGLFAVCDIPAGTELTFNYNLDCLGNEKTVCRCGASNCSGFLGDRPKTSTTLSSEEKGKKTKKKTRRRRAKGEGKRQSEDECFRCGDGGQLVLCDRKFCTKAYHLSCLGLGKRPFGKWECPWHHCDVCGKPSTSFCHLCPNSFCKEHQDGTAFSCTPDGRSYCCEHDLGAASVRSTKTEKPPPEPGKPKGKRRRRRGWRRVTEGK

[13] = biological target: T4, SUMO-activating enzyme (Homo sapiens, UniProt Q9UBT2); assay: blockers of SAE1/SAE2–UBC9 SUMO transfer – biochemical, HTRF, uHTS, primary screen (AID 2006); assay type: protein-complex assay
T4 sequence (Q9UBE0 whole entry): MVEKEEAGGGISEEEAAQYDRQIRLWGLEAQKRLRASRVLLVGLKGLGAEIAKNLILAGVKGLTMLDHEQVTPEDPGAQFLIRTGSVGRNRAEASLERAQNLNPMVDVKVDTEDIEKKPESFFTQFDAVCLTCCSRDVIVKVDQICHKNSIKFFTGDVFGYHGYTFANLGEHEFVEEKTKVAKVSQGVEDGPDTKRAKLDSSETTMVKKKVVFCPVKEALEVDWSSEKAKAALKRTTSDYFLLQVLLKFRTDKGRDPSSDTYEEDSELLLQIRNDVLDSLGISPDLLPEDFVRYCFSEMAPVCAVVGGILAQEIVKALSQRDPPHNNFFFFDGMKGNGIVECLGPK
T4 sequence (Q9UBT2 whole entry): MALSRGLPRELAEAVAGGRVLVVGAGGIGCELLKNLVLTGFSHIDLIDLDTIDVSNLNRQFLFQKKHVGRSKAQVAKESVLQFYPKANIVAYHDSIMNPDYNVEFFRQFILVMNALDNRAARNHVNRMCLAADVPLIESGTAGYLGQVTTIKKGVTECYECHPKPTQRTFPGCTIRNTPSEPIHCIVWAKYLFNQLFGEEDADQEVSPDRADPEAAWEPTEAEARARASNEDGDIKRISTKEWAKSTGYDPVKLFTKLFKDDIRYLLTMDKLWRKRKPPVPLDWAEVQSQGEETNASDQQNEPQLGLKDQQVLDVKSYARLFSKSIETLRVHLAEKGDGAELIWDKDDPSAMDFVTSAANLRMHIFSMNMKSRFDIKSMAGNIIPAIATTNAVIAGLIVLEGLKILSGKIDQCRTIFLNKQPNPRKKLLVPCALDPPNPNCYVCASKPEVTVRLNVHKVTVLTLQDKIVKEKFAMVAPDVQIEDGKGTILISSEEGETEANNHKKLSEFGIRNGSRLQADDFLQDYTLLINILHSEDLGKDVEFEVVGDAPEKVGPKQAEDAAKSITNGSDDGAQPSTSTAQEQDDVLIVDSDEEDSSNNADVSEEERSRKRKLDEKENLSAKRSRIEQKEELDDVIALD

[14] = biological target: Genome polyprotein (dengue virus type 2, UniProt P29990); assay: flavivirus cap methylation enzyme inhibition – biochemical, confirmation dose response, primary screen (AID 588689); assay type: functional
[15] = biological target: T4, SUMO-activating enzyme; assay: blockers of UBC9-mediated SUMO conjugation – biochemical, AlphaScreen, SUMOylation inhibitor project, confirmation (AID 2018); assay type: functional
[16] = biological target: ORF 73 (Human herpesvirus 8, UniProt O40947); assay: KSHV LANA DNA-binding disruption – biochemical, fluorescence polarization, cherry-picked samples, dose response (AID 504725); parameters: species or system Human gammaherpesvirus 8;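 note: fluorescence polarization of a labeled DNA duplex reporting LANA DNA binding; potency is for inhibitors that block LANA binding to the DNA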
[17] = biological target: Transitional endoplasmic reticulum ATPase (Homo sapiens, UniProt P55072, C522A); assay: C522A mutant p97 ATPase inhibitors, dose response, counter-screen for p97 inhibitor project, biochemical, luminescence (AID 1544)
[18] = biological target: T5, Voltage-gated N-type calcium channel alpha-1B subunit/Amyloid beta A4 precursor protein-binding family A member 1 (Homo sapiens, UniProt Q00975+Q02410); assay type: protein assay
T5 sequence (Q00975 whole entry): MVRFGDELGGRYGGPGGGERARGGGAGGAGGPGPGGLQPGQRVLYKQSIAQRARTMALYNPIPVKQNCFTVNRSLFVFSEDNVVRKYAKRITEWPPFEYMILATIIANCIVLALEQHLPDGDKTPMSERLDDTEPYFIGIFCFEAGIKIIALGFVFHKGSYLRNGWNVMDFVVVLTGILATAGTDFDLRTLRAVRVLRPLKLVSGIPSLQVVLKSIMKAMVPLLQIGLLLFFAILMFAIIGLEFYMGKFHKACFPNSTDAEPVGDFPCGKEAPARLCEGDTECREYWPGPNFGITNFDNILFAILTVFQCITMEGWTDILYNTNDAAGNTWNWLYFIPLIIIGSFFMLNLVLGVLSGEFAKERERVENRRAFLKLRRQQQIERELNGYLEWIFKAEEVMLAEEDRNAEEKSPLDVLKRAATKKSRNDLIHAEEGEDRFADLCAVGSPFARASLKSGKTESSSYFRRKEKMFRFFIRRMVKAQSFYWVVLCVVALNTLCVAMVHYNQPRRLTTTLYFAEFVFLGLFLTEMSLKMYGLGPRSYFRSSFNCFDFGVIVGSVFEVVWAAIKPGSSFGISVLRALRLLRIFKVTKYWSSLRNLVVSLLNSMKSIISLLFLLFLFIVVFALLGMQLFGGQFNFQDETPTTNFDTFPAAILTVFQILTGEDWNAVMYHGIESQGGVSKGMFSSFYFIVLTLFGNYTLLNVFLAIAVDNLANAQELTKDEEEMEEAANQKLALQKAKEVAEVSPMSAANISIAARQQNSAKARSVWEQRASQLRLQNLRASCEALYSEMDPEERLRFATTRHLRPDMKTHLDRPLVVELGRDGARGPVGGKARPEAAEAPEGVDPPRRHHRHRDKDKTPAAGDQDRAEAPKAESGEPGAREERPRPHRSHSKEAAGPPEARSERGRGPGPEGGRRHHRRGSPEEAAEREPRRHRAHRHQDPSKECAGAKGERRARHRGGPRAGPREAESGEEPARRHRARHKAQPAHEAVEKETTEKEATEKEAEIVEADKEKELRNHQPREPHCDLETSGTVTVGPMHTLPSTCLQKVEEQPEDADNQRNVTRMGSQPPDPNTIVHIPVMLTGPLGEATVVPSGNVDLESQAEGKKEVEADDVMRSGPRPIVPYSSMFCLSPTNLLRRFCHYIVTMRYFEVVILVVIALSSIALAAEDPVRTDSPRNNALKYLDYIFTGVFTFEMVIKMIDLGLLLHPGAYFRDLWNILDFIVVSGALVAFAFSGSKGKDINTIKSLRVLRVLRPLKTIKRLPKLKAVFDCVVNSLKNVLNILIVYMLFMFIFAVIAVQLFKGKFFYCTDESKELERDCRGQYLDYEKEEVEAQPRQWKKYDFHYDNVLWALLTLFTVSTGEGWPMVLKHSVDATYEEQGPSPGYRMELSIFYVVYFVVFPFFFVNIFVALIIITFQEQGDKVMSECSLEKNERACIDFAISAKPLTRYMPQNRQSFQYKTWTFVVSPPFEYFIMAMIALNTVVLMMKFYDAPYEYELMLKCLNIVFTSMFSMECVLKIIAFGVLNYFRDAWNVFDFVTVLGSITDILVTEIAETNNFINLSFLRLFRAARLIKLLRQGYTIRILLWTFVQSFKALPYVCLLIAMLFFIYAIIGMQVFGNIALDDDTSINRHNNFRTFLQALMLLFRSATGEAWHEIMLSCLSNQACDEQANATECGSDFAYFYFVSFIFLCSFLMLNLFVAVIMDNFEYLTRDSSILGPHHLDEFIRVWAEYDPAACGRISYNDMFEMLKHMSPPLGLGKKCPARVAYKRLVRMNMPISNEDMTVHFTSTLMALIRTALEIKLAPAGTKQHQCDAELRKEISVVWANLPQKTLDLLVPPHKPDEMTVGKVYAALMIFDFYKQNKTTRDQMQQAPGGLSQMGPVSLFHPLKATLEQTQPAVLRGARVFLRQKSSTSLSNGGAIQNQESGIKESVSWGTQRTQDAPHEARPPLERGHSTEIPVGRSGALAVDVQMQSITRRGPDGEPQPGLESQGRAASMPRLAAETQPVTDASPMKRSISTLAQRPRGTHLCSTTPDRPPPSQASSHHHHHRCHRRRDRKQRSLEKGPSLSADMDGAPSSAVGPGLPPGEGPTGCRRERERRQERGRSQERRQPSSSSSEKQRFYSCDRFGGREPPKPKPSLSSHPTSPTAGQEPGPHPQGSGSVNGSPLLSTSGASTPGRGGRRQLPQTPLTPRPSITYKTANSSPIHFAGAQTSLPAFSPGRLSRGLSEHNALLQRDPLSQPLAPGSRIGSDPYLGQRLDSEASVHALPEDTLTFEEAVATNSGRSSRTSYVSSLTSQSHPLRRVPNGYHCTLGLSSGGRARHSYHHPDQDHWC
T5 sequence (Q02410 whole entry): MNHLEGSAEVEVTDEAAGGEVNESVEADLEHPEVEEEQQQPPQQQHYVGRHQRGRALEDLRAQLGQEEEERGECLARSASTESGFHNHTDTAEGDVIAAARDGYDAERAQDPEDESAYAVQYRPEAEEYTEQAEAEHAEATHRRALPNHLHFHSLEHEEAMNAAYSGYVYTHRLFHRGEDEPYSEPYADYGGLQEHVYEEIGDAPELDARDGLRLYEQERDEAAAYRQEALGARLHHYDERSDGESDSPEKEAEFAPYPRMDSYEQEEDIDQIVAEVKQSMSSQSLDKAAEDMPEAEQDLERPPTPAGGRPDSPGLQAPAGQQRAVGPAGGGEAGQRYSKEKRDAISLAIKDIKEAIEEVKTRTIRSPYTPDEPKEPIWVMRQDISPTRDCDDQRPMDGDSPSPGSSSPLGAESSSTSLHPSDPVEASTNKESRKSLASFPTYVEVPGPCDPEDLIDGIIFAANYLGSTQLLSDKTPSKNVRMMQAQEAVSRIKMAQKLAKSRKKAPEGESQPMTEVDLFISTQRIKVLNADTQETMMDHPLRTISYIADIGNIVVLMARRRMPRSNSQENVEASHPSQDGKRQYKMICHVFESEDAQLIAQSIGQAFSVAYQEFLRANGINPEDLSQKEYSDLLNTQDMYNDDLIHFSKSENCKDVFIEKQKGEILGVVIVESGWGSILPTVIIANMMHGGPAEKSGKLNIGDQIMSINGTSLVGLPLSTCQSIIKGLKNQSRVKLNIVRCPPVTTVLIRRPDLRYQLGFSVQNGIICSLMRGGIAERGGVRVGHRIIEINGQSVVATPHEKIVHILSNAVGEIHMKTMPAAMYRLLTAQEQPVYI

[19] = biological target: DNA (cytosine-5)-methyltransferase 1 (Homo sapiens, UniProt P26358); assay: inhibition of DNA methylation by DNMT1 – biochemical, fluorescent molecular beacon, confirmation (AID 602386); assay type: functional
[20] = biological target: T6, Caspase-6 (Homo sapiens, UniProt P55212); assay: inhibition of CASP6 peptide cleavage – biochemical, VEID-R110 fluorescence, cherry-pick, dose response (AID 720632)
T6 sequence (P55212 whole entry): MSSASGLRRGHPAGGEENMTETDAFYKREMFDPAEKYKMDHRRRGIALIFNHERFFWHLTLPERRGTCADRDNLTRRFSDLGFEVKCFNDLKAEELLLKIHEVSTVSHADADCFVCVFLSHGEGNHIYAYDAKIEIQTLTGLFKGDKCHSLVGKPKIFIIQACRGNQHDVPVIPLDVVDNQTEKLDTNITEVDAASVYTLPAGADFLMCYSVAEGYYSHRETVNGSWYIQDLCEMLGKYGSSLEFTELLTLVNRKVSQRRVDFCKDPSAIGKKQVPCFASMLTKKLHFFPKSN

[21] = biological target: Induced myeloid leukemia cell differentiation protein Mcl-1 (Homo sapiens, UniProt Q07820); assay type: functional
[22] = biological target: T5, Voltage-gated N-type calcium channel alpha-1B subunit/Amyloid beta A4 precursor protein-binding family A member 1; assay type: protein assay; remark: listed apart in the source
[23] = biological target: SUMO E1/E2 (Homo sapiens, UniProt P63279+Q9UBE0+Q9UBT2); assay: SAR analysis of SUMOylation using HTRF in an in-Vitro dose response assay. [Related pubchem assays (depositor defined):AID2006, AID2011, AID2018, AID2069, AID2658]; assay type: functional
[24] = biological target: T7, Aminopeptidase N (Plasmodium falciparum FcB1/Columbia, UniProt O96935); assay: malaria alanyl aminopeptidase activity blockers – biochemical, fluorogenic H-Leu-NHMec substrate, 1536-well (AID 1445); parameters: species or system Plasmodium falciparum 3D7, 3D7
T7 sequence (O96935 whole entry): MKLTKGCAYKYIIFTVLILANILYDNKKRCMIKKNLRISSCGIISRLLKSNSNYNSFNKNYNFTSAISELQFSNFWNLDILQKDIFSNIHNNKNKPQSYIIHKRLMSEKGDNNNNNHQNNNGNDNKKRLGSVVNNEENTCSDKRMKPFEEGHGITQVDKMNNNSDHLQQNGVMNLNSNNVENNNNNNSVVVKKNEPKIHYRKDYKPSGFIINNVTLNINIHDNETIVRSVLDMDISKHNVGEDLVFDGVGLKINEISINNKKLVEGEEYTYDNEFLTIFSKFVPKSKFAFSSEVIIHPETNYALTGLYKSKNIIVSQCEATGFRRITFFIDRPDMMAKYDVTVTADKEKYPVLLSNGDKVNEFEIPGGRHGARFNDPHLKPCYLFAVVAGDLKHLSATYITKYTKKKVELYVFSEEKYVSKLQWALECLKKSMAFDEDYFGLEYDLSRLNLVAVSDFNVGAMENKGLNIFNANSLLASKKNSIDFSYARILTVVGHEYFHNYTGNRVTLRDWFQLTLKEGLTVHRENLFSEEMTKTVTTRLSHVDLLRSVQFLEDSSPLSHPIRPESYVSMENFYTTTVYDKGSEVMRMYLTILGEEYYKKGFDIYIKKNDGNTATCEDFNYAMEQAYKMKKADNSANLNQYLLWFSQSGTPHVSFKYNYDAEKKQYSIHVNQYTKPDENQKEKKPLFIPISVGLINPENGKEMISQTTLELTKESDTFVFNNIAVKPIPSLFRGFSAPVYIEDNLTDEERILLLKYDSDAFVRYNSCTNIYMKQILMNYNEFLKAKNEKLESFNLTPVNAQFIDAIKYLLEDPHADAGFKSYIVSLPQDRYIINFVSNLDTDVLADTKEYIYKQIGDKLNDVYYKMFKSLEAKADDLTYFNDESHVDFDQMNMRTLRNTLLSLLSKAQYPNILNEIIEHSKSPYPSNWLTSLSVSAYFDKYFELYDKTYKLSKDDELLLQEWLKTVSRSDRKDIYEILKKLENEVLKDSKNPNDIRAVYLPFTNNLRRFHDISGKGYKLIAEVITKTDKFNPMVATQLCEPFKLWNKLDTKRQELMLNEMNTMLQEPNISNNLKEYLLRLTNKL

[25] = biological target: Transitional endoplasmic reticulum ATPase (Homo sapiens, UniProt P55072); assay: p97 ATPase inhibitors, dose response, biochemical (AID 1534)
[26] = biological target: Delta-type opioid receptor (Homo sapiens, UniProt P41143); assay: SAR Analysis of Agonists of the DOR Receptor using an Image-Based Assay - Set 3. [Related pubchem assays (depositor defined):AID1777, AID1786]; assay type: functional
[27] = biological target: Mu-type opioid receptor (Homo sapiens, UniProt P35372); assay: SAR Analysis of Agonists of the MOR Receptor using an Image-Based Assay - Set 3. [Related pubchem assays (depositor defined):AID1777, AID1785, AID1786, AID1966, AID2133, AID2136, AID2284, AID2285, AID2352]; assay type: functional
[28] = biological target: T8, Kappa-type opioid receptor (Homo sapiens, UniProt P41145); assay: kappa opioid receptor activation by imaging – image-based, set 3, SAR follow-up (AID 488833); assay type: functional
[29] = biological target: T8, Kappa-type opioid receptor; assay: SAR analysis of small molecule agonists of the kappa opioid receptor via a luminescent beta-arrestin assay - Set 3. [Related pubchem assays (depositor defined):AID1777, AID1785, AID1786, AID1966, AID2133, AID2136, AID2284, AID2500]; assay type: functional

O=[N+]([O-])c1ccc(O)c(-c2nn[nH]n2)c1
IC50 [1]: > 67 µM (not active) | AC50 [2]: 4.74 µM (active) | IC50 [3]: 44.5 µM (not active) | AC50 [4]: 121 µM (active)

Cc1ccc(C(=O)Nc2sc3c(c2C(=O)O)CCCC3)o1
IC50 [5]: > 20 µM (inactive) | IC50 [6]: > 20 µM (inactive) | IC50 [7]: > 20 µM (inactive) | IC50 [8]: > 20 µM (inactive)

Cc1cc(C)nc(NC(=O)c2cc(-c3ccc(C)s3)nc3ccccc23)c1
IC50 [9]: > 79.4 µM (inactive) | IC50 [10]: > 79.4 µM (inactive) | IC50 [11]: > 79.4 µM (inactive)

O=C(O)c1ccc(NS(=O)(=O)c2ccc3c(c2)C2C=CCC2C(c2ccccc2F)N3)cc1 (centres undefined)
AC50 [12]: 10.2 µM (active) | IC50 [13]: 19.5 µM (active) | IC50 [14]: 62.3 µM (active) | IC50 [15]: 4.63 µM (active) | AC50 [16]: 109 µM (active) | IC50 [17]: > 50 µM (not active) | IC50 [18]: > 50 µM (inactive) | IC50 [19]: 10.1 µM (active) | AC50 [20]: 13.7 µM (active) | IC50 [21]: 2.58 µM (active) | IC50 [22]: > 56.8 µM (not active) | IC50 [23]: 35.3 µM (active) | IC50 [24]: 2.75 µM (active) | IC50 [25]: 19 µM (not active)

Fc1cc(F)cc(CSc2nnc(-c3ccccn3)n2Cc2ccco2)c1
EC50 [26]: > 64 µM (inactive) | EC50 [27]: > 32 µM (inactive) | EC50 [28]: 20.6 µM (inactive) | EC50 [29]: 7.89 µM (active)
